The results in this text go back to PubChem BioAssay (NCI).

What all share (assay): inhibition of tumour cell growth, NCI panel, 48 h
Test [1] has as its system 786-0 renal.
Test [2] deals with A498 renal.
Test [3] concerns A549 NSCLC.
In test [4] the test system is CCRF-CEM leukemia.
Test [5] has as its system COLO 205 colon.
Test [6] deals with HCT-116 colon.
Test [7] deals with HCT-15 colon.
Test [8] has as its system HS 578T breast.
In test [9] the test system is MCF7 breast.
Test [10] has as its system MOLT-4 leukemia.
Test [11] relates to NCI-H226 lung.
In test [12] the test system is OVCAR-5 ovarian.
Test [13] has as its system UO-31 renal.

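Cells were grown in 96-well plates and exposed to each compound for 48 hours at five concentrations; endpoints were interpolated linearly between bracketing concentrations, or set to the highest concentration if not reached. Definition used: TGI = concentration required for complete inhibition of growth.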 Some results are limits rather than exact numbers.

As for `COc1cc2c(cc1OC)C(=O)N(NC1=NCCN1)C2=O`, the TGI in [1], in [2], in test [3], in test [4], in test [5] and in [6] was > 100 µM in each case. Besides, the TGI in test [7], in test [8], in test [9], in test [10], in test [11] and in [12] was > 100 µM throughout.

Take `FC1=C2CCCCCC2SC1(F)F` (centres undefined): the TGI in test [1] is > 100 µM; in test [3], > 100 µM; in [4], 18.7 µM; in [5], 39.2 µM; in [6], > 100 µM; in test [7], > 100 µM. Further, the TGI in test [8] was > 100 µM; in test [9], > 100 µM; in [10], 44.1 µM; in test [11] it was > 100 µM; in [12] it was > 100 µM; in test [13], > 100 µM.

`CC(C)C(NCc1c(O)ccc2c(-c3ccccc3)cc(=O)oc12)C(=O)O` (centres undefined): the TGI in [1], in test [3], in test [4], in [5], in test [6] and in test [7] was > 100 µM in each case. Further, the TGI in test [8], in test [9], in test [10], in [11], in [12] and in [13] was > 100 µM throughout.

For `CC1=C(C(=O)OC(C)C)C(c2ccccc2C(F)(F)F)C(C(=O)OC(CO[N+](=O)[O-])CO[N+](=O)[O-])=C(C)N1` (centres undefined), the TGI stood at 14 µM in test [1]; 33 µM in test [3]; 11.1 µM in test [4]; 63.5 µM in [5]; 16.6 µM in [6]; 93.8 µM in [7]. Also, the TGI was 49.8 µM in test [8]; 72.2 µM in test [9]; 9.79 µM in test [10]; 38.5 µM in [11]; 46.8 µM in [12]; 4.37 µM in test [13].

As to `O=c1ccn(C2OC(CN(O)CCC3C(CO)OC(n4ccc(=O)[nH]c4=O)C3O)C(O)C2O)c(=O)[nH]1` (centres undefined), the TGI in test [1], in test [2], in test [3], in test [4], in [5] and in [6] was > 100 µM throughout. For the same molecule, the TGI in [7], in test [8], in test [9], in test [10], in [11] and in [12] was > 100 µM throughout. Further, the TGI in [13] was > 100 µM.

On to `COc1ccc(CCc2nccn2C)cc1OC`, for which the TGI in test [1], in test [2], in test [3], in test [4], in test [5] and in test [6] was > 100 µM throughout. In addition, the TGI in test [7], in test [8], in [9], in [10], in test [12] and in test [13] was > 100 µM each time.

Take `COc1ccc(N=[N+]([O-])c2ccc(OC)cc2)cc1`: the TGI in test [1], in [2], in [3], in [5], in test [6] and in [7] was > 100 µM each time. The TGI in [8], in test [9], in test [10], in test [12] and in test [13] was > 100 µM each time.

Turning to `CC(=O)OCC(Br)C1(C)CCC(C(C)(C)Br)O1` (centres undefined), the TGI in test [1], in test [2], in [3], in test [4], in test [5] and in [6] was > 100 µM in each case. For the same molecule, the TGI in test [8], in test [9], in test [10], in [11], in test [12] and in test [13] was > 100 µM in each case.

With `S=c1[nH]nc(NNc2ccccc2)n1Nc1ccccc1`, the TGI in test [1] was > 100 µM; in test [2], > 100 µM; in test [3] it was > 100 µM; in [4], 42 µM; in test [5], > 37.6 µM; in [6] it was > 100 µM. Moreover, the TGI in test [7] is > 100 µM; in test [8], > 100 µM; in test [9], > 100 µM; in test [11] it was > 96.6 µM; in test [12], > 100 µM; in test [13], > 100 µM.

With `CC(=O)c1sc(=N)n(-c2c(C)cccc2C)c1C`, the TGI in test [1], in test [2], in test [3], in [4], in [5] and in [7] was > 100 µM throughout. Moreover, the TGI in test [8], in [9], in test [10], in test [11], in [12] and in [13] was > 100 µM each time.

As to `N#Cc1sc2c(c1O)c(=O)n(-c1ccccc1)c(=S)n2-c1ccccc1`, the TGI in [1], in test [3], in test [5], in test [7], in test [8] and in test [9] was > 100 µM in each case. The TGI in test [11], in [12] and in test [13] was > 100 µM in each case.
